From the Kinase Knowledgebase extract (Sharma et al. 2016) come the findings set out here.

The target of the assay is PIK3CD (Human) (UniProt O00329). The experiment in a line: Enzyme Assay.
Chain of PIK3CD (Human) (O00329 whole entry, looked up): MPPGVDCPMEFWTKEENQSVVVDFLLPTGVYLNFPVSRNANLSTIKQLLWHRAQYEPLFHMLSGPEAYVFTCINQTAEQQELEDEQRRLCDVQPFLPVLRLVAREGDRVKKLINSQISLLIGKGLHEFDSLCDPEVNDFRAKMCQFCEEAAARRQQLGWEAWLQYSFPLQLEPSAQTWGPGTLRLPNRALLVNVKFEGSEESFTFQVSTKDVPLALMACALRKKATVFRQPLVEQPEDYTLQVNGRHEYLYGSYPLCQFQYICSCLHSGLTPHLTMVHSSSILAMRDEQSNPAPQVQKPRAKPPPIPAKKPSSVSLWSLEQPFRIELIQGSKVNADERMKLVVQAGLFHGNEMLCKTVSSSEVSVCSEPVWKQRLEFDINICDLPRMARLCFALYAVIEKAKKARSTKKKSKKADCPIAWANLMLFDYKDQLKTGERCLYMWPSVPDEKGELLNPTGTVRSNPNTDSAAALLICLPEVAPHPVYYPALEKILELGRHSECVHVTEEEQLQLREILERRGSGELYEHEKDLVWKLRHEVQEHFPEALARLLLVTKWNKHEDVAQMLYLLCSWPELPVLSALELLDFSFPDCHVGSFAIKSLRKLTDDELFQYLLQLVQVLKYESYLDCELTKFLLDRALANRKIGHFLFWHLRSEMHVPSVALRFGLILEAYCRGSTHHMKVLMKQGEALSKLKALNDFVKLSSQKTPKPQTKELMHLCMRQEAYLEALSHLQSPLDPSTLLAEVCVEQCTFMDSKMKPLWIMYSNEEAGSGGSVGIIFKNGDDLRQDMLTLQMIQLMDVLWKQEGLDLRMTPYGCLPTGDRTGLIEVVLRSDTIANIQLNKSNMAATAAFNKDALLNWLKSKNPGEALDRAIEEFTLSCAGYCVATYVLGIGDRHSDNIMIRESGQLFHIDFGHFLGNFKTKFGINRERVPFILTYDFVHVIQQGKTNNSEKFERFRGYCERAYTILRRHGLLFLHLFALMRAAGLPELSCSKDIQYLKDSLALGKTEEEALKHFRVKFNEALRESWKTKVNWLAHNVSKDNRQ
In turn, `CCn1c(-c2cnc(OC)c(F)c2)nc2c(O[C@H]3CCN(C(=O)C4CCOCC4)C3)ncnc21` registered an IC50 below 1 nM.
Take `CCn1ncc(-c2nc3c(O[C@H]4CCN(C(=O)NC(C)C)C4)ncnc3n2C)c1C`: the IC50 amounted to 9.2 nM. That is a single-digit nanomolar value.
In turn, `CCn1ncc(-c2nc3c(OC4CCN(C(=O)c5ccccc5)CC4)ncnc3n2C)c1C` displayed an IC50 of 960 nM.
For the compound `CCn1c(-c2cnc(C)nc2)nc2c(O[C@H]3CCN(C(=O)N4CCC4)C3)ncnc21`, the IC50 turned out to be 1.3 nM.
Take `CCn1c(-c2ccc(C(F)(F)F)nc2)nc2c(O[C@H]3CCN(C(=O)C4CC4)C3)ncnc21`: the half-inhibitory concentration (IC50) stood at 3 nM.
`CCC(=O)N1CC[C@H](Oc2ncnc3c2nc(-c2cnc(OC)c(C)c2)n3CC)C1` had an IC50 of 0.5 nM.
For the compound `CCC(=O)N1CC[C@H](Oc2ncnc3c2nc(-c2cnn(CC)c2C)n3C2CC2)C1`, the IC50 came out at 160 nM.
`CCn1c(C(=O)NCC(F)(F)F)nc2c(O[C@H]3CCN(C(=O)OC(C)(C)C)C3)ncnc21` showed an IC50 of 31 nM.
`CCn1ncc(-c2nc3c(O[C@H]4CCN(C(=O)OCc5ccccc5)C4)ncnc3n2C)c1C` had an IC50 of 14 nM.
The compound `CCC(=O)N1CC[C@H](Oc2ncnc3c2nc(-c2ccc(C(F)(F)F)nc2)n3C)C1` yielded an IC50 of 99 nM.
Turning to `CCC(=O)N1CC[C@H](Oc2ncnc3c2nc(C(F)F)n3CC)C1`, the IC50 was 100 nM.
`CCn1c(-c2cnc(C)nc2)nc2c(O[C@H]3CCN(C(=O)N4CC(O)C4)C3)ncnc21` displayed an IC50 of 4.3 nM.
In turn, `CCn1ncc(-c2nc3c(OC4CCN(C(=O)c5ccccc5)C4)ncnc3n2C)c1C` (centres undefined) returned an IC50 of 68 nM.
Take `CCn1ncc(-c2nc3c(O[C@H]4CCN(c5cc(-n6cc(C)cn6)ncn5)C4)ncnc3n2C)c1C`: the IC50 turned out to be 160 nM.
Then `CCC(=O)N1CC[C@H](S(=O)(=O)c2ncnc3c2nc(-c2cnn(CC)c2C)n3C)C1`, with 210 nM; and `CCn1c(-c2ccc(OC(F)F)nc2)nc2c(O[C@H]3CCN(C(=O)OC(C)(C)C)C3)ncnc21`, with 15 nM.
The figure for `CCn1ncc(-c2nc3c(O[C@H]4CCN(C(=O)c5cc(C(F)(F)F)nn5C)C4)ncnc3n2C)c1C` is 26 nM.
Then `CCC(=O)N1CC[C@H](Oc2ncnc3c2nc(-c2cnn(CC)c2C)n3CC)C1`, with 0.6 nM.
`CCn1ncc(-c2nc3c(O[C@H]4CCN(C(=O)Nc5cccc(C)c5)C4)ncnc3n2C)c1C` gave an IC50 of 650 nM.
